Experimental data: US11447480B2, “Compound exhibiting enteropeptidase inhibitory activity” (LG CHEM, LTD., priority 2018, dated 2022)
pKi: −log10 of the molar value.

Target: Recombinant Human Enteropeptidase (Homo sapiens (Human), UniProt P98073)
Assay: Enteropeptidase Inhibition Assay
Format: biochemical
Conditions: substrate Acetyl-Asp-Asp-Asp-Asp-Lys-AFC 30 μM, 30° C., 1 hour; Ki calculated from IC50 using Cheng-Prusoff equation
Protocol: Enteropeptidase Inhibition Assay
The inhibitory activity of the enteropeptidase inhibitor synthesized using the purified Recombinant Human Enteropeptidase and the substrate Acetyl-Asp-Asp-Asp-Asp-Lys-AFC (BioVision) was measured. 7.2 ng/mL of Enteropeptidase diluted with a buffer (20 mM Tris, 50 mM NaCl, pH 7.5) in a 96 well plate (Costar), 30 μM of Acetyl-Asp-Asp-Asp-Asp-Lys-AFC, several concentrations of Enteropeptidase inhibitors (1% DMSO concentration) were dispensed such that a final volume was 100 μL, and then the enzyme reaction was carried out at 30° C. for 1 hour. At this time, 1% DMSO, a substrate and Enteropeptidase instead of the compound were dispensed onto positive control wells, and 1% DMSO and a substrate were dispensed onto negative control wells. The enzyme reaction was […] using an excitation wavelength of 380 nm and an emission wavelength of 500 nm in a fluorescence spectrometer, and then the rate of increase in fluorescence (milli-units per min) between 20 and 60 minutes was measured.
The fluorescence measurement values reduced by the inhibitor diluted at each concentration were converted into relative values % of the positive control group (100% reactivity) and the negative control group (0% reactivity), and used to calculate IC50 values. IC50 is the concentration of the inhibitor that inhibits the enzyme activity by 50%, and was calculated using PRISM (GraphPad). Ki values were calculated from the IC50 values using Cheng-Prusoff equation.

Recombinant Human Enteropeptidase, sequence (P98073 whole entry): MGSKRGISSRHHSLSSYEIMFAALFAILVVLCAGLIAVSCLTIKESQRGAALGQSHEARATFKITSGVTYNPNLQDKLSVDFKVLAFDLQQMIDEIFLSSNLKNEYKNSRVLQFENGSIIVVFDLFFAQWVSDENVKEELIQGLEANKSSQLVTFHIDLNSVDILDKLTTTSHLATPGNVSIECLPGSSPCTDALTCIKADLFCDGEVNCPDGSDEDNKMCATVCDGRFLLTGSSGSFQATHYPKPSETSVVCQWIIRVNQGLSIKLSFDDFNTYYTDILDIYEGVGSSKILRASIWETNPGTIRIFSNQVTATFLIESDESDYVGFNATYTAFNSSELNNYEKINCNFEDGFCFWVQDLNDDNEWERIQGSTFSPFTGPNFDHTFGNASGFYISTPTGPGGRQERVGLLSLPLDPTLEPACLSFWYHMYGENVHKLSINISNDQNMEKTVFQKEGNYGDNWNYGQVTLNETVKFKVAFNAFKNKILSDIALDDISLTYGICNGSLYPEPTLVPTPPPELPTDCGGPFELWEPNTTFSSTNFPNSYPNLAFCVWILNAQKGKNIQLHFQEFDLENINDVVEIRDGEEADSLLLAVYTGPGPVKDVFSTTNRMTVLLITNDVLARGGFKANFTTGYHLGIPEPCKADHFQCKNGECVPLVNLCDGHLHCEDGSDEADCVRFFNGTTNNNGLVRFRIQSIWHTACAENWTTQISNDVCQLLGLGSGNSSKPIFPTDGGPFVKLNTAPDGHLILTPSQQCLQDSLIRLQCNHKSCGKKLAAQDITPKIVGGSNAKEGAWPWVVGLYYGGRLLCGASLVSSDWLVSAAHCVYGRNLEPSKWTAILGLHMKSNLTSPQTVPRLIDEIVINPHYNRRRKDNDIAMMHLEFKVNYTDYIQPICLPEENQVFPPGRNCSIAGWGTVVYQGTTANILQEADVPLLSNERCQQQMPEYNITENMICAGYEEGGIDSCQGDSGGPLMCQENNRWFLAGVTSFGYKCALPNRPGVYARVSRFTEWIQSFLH

pKi	SMILES
8.31	N=C(N)c1ccc(OC(=O)c2cnc(N3CCC(C(=O)O)CC3)s2)cc1 [Example 2, 1-(5-((4-Carbamimidoylphenoxy)carbonyl)thiazol-2-yl)piperidine-4-carboxylic Acid]
7.77	COC(=O)C1CCN(c2ncc(C(=O)Oc3ccc(C(=N)N)cc3)s2)CC1 [Example 3, 4-Carbamimidoylphenyl 2-(4-(methoxycarbonyl)piperidin-1-yl)thiazole-5-carboxylate]
9.04	COC(=O)C1CCN(c2ncc(C(=O)Oc3ccc(C(=N)N)cc3F)s2)CC1 [Example 4, 4-Carbamimidoyl-2-fluorophenyl 2-(4-(methoxycarbonyl)piperidin-1-yl)thiazole-5-carboxylate]
6.29	COC(=O)C1CCN(c2ncc(C(=O)Oc3ccc(NC(=N)N)cc3)s2)CC1 [Example 5, 4-Guanidinophenyl 2-(4-(methoxycarbonyl)piperidin-1-yl)thiazole-5-carboxylate]
6.66	N=C(N)Nc1ccc(OC(=O)c2cnc(N3CCC(C(=O)O)CC3)s2)cc1 [Example 6, 1-(5-((4-Guanidinophenoxy)carbonyl)thiazol-2-yl)piperidine-4-carboxylic Acid]
9.22	N=C(N)c1ccc(OC(=O)c2cnc(N3CCC(C(=O)O)CC3)s2)c(F)c1 [Example 7, 1-(5-((4-Carbamimidoyl-2-fluorophenoxy)carbonyl)thiazol-2-yl)piperidine-4-carboxylic Acid]
7.55	COC(=O)CCN(C)c1ncc(C(=O)Oc2ccc(C(=N)N)cc2)s1 [Example 8, 4-Carbamimidoylphenyl 2-((3-methoxy-3-oxopropyl)(methyl)amino)thiazole-5-carboxylate]
7.55	CN(CCC(=O)O)c1ncc(C(=O)Oc2ccc(C(=N)N)cc2)s1 [Example 9]
7.96	COC(=O)CCNc1ncc(C(=O)Oc2ccc(C(=N)N)cc2)s1 [Example 10, 4-Carbamimidoylphenyl 2-((3-methoxy-3-oxopropyl)amino)thiazole-5-carboxylate]
7.68	COC(=O)CCCN(C)c1ncc(C(=O)Oc2ccc(C(=N)N)cc2)s1 [Example 11, 4-Carbamimidoylphenyl 2-((4-methoxy-4-oxobutyl)(methyl)amino)thiazole-5-carboxylate]
8.01	CCN(CCC(=O)OC)c1ncc(C(=O)Oc2ccc(C(=N)N)cc2)s1 [Example 12, 4-Carbamimidoylphenyl 2-(ethyl(3-methoxy-3-oxopropyl)amino)thiazole-5-carboxylate]
8.32	N=C(N)c1ccc(OC(=O)c2cnc(NCCC(=O)O)s2)cc1 [Example 13]
8.29	CCN(CCC(=O)O)c1ncc(C(=O)Oc2ccc(C(=N)N)cc2)s1 [Example 14]
8.24	CN(CCCC(=O)O)c1ncc(C(=O)Oc2ccc(C(=N)N)cc2)s1 [Example 15]
7.72	COC(=O)C1CCN(c2ncc(C(=O)Oc3ccc(C(=N)N)cc3)s2)C1 (stereo not shown) [Example 16, 4-Carbamimidoylphenyl 2-(3-(methoxycarbonyl)pyrrolidin-1-yl)thiazole-5-carboxylate]
8.27	N=C(N)c1ccc(OC(=O)c2cnc(N3CCC(C(=O)O)C3)s2)cc1 (stereo not shown) [Example 17, 1-(5-((4-Carbamimidoylphenoxy)carbonyl)thiazol-2-yl)pyrrolidine-3-carboxylic Acid]
8.05	COC(=O)C(C)(C)CN(C)c1ncc(C(=O)Oc2ccc(C(=N)N)cc2)s1 [Example 18, 4-Carbamimidoylphenyl 2-((3-methoxy-2,2-dimethyl-3-oxopropyl)(methyl)amino)thiazole-5-carboxylate]
8.32	CN(CC(C)(C)C(=O)O)c1ncc(C(=O)Oc2ccc(C(=N)N)cc2)s1 [Example 19]
8.60	CCN(CCC(=O)OC)c1ncc(C(=O)Oc2ccc(C(=N)N)cc2F)s1 [Example 20, 4-Carbamimidoyl-2-fluorophenyl 2-(ethyl(3-methoxy-3-oxopropyl)amino) thiazole-5-carboxylate]
8.52	COC(=O)CCCN(C)c1ncc(C(=O)Oc2ccc(C(=N)N)cc2F)s1 [Example 21, 4-Carbamimidoyl-2-fluorophenyl 2-((4-methoxy-4-oxobutyl)(methyl)amino)thiazole-5-carboxylate]

pKi	SMILES
9.24	CN(CCCC(=O)O)c1ncc(C(=O)Oc2ccc(C(=N)N)cc2F)s1 [Example 22, 4-((5-((4-Carbamimidoyl-2-fluorophenoxy)carbonyl)thiazol-2-yl)(methyl)amino)butanoic Acid]
8.05	COC(=O)C(C)(C)CNc1ncc(C(=O)Oc2ccc(C(=N)N)cc2)s1 [Example 24, 4-Carbamimidoylphenyl 2-((3-methoxy-2,2-dimethyl-3-oxopropyl)amino)thiazole-5-carboxylate]
8.33	N=C(N)c1ccc(OC(=O)c2cnc(N3CCC(C(=O)N[C@@H](CC(=O)O)C(=O)O)CC3)s2)cc1 [Example 25]
7.92	N=C(N)c1ccc(OC(=O)c2cnc(N3CCC(C(=O)Nc4ccccc4)CC3)s2)cc1 [Example 27, 4-Carbamimidoylphenyl 2-(4-(phenylcarbamoyl)piperidin-1-yl)thiazole-5-carboxylate]
8.19	N=C(N)c1ccc(OC(=O)c2cnc(N3CCC(NC(=O)c4ccccc4)CC3)s2)cc1 [Example 28, 4-Carbamimidoylphenyl 2-(4-benzamidopiperidin-1-yl)thiazole-5-carboxylate]
7.74	COC(=O)CNC(=O)C1CCN(c2ncc(C(=O)Oc3ccc(C(=N)N)cc3)s2)CC1 [Example 29, 4-Carbamimidoylphenyl 2-(4-((2-methoxy-2-oxoethyl)carbamoyl)piperidin-1-yl)thiazole-5-carboxylate]
7.74	COC(=O)CCNC(=O)C1CCN(c2ncc(C(=O)Oc3ccc(C(=N)N)cc3)s2)CC1 [Example 30, 4-Carbamimidoylphenyl 2-(4-((3-methoxy-3-oxopropyl)carbamoyl)piperidin-1-yl)thiazole-5-carboxylate]
7.77	COC(=O)CCCN(C)C(=O)C1CCN(c2ncc(C(=O)Oc3ccc(C(=N)N)cc3)s2)CC1 [Example 31, 4-Carbamimidoylphenyl 2-(4-((4-methoxy-4-oxobutyl)(methyl)carbamoyl)piperidin-1-yl)thiazole-5-carboxylate]
7.74	COC(=O)C(C)(C)CNC(=O)C1CCN(c2ncc(C(=O)Oc3ccc(C(=N)N)cc3)s2)CC1 [Example 32, 4-Carbamimidoylphenyl 2-(4-((3-methoxy-2,2-dimethyl-3-oxopropyl)carbamoyl)piperidin-1-yl)thiazole-5-carboxylate]
8.09	N=C(N)c1ccc(OC(=O)c2cnc(N3CCC(C(=O)NCC(=O)O)CC3)s2)cc1 [Example 33]
8.05	N=C(N)c1ccc(OC(=O)c2cnc(N3CCC(C(=O)NCCC(=O)O)CC3)s2)cc1 [Example 34]
8.01	CN(CCCC(=O)O)C(=O)C1CCN(c2ncc(C(=O)Oc3ccc(C(=N)N)cc3)s2)CC1 [Example 35]
8.01	CC(C)(CNC(=O)C1CCN(c2ncc(C(=O)Oc3ccc(C(=N)N)cc3)s2)CC1)C(=O)O [Example 36]
8.74	COC(=O)CNC(=O)C1CCN(c2ncc(C(=O)Oc3ccc(C(=N)N)cc3F)s2)CC1 [Example 37, 4-Carbamimidoyl-2-fluorophenyl 2-(4-((2-methoxy-2-oxoethyl)carbamoyl)piperidin-1-yl)thiazole-5-carboxylate]
8.59	COC(=O)CCNC(=O)C1CCN(c2ncc(C(=O)Oc3ccc(C(=N)N)cc3F)s2)CC1 [Example 38, 4-Carbamimidoyl-2-fluorophenyl 2-(4-((3-methoxy-3-oxopropyl)carbamoyl)piperidin-1-yl)thiazole-5-carboxylate]
8.60	COC(=O)C(C)(C)CNC(=O)C1CCN(c2ncc(C(=O)Oc3ccc(C(=N)N)cc3F)s2)CC1 [Example 39, 4-Carbamimidoyl-2-fluorophenyl 2-(4-((3-methoxy-2,2-dimethyl-3-oxopropyl)carbamoyl)piperidin-1-yl)thiazole-5-carboxylate]
8.01	COc1ccc(NC(=O)C2CCN(c3ncc(C(=O)Oc4ccc(C(=N)N)cc4)s3)CC2)cc1 [Example 40, 4-carbamimidoylphenyl 2-(4-((4-methoxyphenyl)carbamoyl)piperidin-1-yl)thiazole-5-carboxylate]
8.74	COC(=O)CCCN(C)C(=O)C1CCN(c2ncc(C(=O)Oc3ccc(C(=N)N)cc3F)s2)CC1 [Example 41, 4-Carbamimidoyl-2-fluorophenyl 2-(4-((4-methoxy-4-oxobutyl)(methyl)carbamoyl)piperidin-1-yl)thiazole-5-carboxylate]
9.00	N=C(N)c1ccc(OC(=O)c2cnc(N3CCC(C(=O)NCC(=O)O)CC3)s2)c(F)c1 [Example 42, (1-(5-((4-Carbamimidoyl-2-fluorophenoxy)carbonyl)thiazol-2-yl)piperidine-4-carbonyl)glycine]
8.77	N=C(N)c1ccc(OC(=O)c2cnc(N3CCC(C(=O)NCCC(=O)O)CC3)s2)c(F)c1 [Example 43, 3-(1-(5-((4-Carbamimidoyl-2-fluorophenoxy)carbonyl)thiazol-2-yl)piperidine-4-carboxamido)propanoic Acid]
